In article PMC6582339 (2019):

Experiments:
[1] = system: OBA3 (DNA, aptamer) CGGGGCGAAGCGGGTCCCG; experiment: solution NMR structure; conditions: 10 mM MgCl2; 10 mM Na2HPO4/KH2PO4; pH 7.4, 288-310 K
[2] = system: OBAwt-I1 (DNA, aptamer, inosine at 1) GGGGTGAAACGGGTCCCG; experiment: inosine substitution (Figure S1); conditions: 10 mM MgCl2; 10 mM Na2HPO4/KH2PO4; pH 7.4
[3] = system: OBAwt-I2 (DNA, aptamer, inosine at 2) GGGGTGAAACGGGTCCCG; experiment: inosine substitution (Figure S1); conditions: 10 mM MgCl2; 10 mM Na2HPO4/KH2PO4; pH 7.4
[4] = system: OBAwt-I3 (DNA, aptamer, inosine at 3) GGGGTGAAACGGGTCCCG; experiment: inosine substitution (Figure S1); conditions: 10 mM MgCl2; 10 mM Na2HPO4/KH2PO4; pH 7.4
[5] = system: OBAwt-I4 (DNA, aptamer, inosine at 4) GGGGTGAAACGGGTCCCG; experiment: inosine substitution (Figure S1); conditions: 10 mM MgCl2; 10 mM Na2HPO4/KH2PO4; pH 7.4
[6] = system: OBAwt-I6 (DNA, aptamer, inosine at 6) GGGGTGAAACGGGTCCCG; experiment: inosine substitution (Figure S1); conditions: 10 mM MgCl2; 10 mM Na2HPO4/KH2PO4; pH 7.4
[7] = system: OBAwt-I11 (DNA, aptamer, inosine at 11) GGGGTGAAACGGGTCCCG; experiment: inosine substitution (Figure S1); conditions: 10 mM MgCl2; 10 mM Na2HPO4/KH2PO4; pH 7.4
[8] = system: OBAwt-I12 (DNA, aptamer, inosine at 12) GGGGTGAAACGGGTCCCG; experiment: inosine substitution (Figure S1); conditions: 10 mM MgCl2; 10 mM Na2HPO4/KH2PO4; pH 7.4
[9] = system: OBAwt-I13 (DNA, aptamer, inosine at 13) GGGGTGAAACGGGTCCCG; experiment: inosine substitution (Figure S1); conditions: 10 mM MgCl2; 10 mM Na2HPO4/KH2PO4; pH 7.4
[10] = system: OBA4 (DNA, aptamer) GGGGTGAAACGGTCCCG; experiment: not stated for this variant (Figure S2); conditions: 10 mM MgCl2; 10 mM Na2HPO4/KH2PO4; printed NB (no binding); pH 7.4
[11] = system: OBAwt (DNA, aptamer) GGGGTGAAACGGGTCCCG; experiment: fluorescence polarization (OTA intrinsic fluorescence); conditions: 10 mM MgCl2; 10 mM Na2HPO4/KH2PO4; pH 7.4, room temperature, 500 nM OTA titrated with aptamer
[12] = system: OBA1 (DNA, aptamer) CGGGGTGAAACGGGTCCCG; experiment: as above; conditions: 10 mM MgCl2; 10 mM Na2HPO4/KH2PO4; pH 7.4, room temperature, 500 nM OTA titrated with aptamer
[13] = system: OBA2 (DNA, aptamer) GGGGCGAAGCGGGTCCCG; experiment: as above; conditions: 10 mM MgCl2; 10 mM Na2HPO4/KH2PO4; pH 7.4, room temperature, 500 nM OTA titrated with aptamer
[14] = system: OBA3 (DNA, aptamer) CGGGGCGAAGCGGGTCCCG; experiment: as above; conditions: 10 mM MgCl2; 10 mM Na2HPO4/KH2PO4; pH 7.4, room temperature, 500 nM OTA titrated with aptamer
[15] = system: OBA5 (DNA, aptamer) CCGGGGCGAAGCGGGTCCCGG; experiment: as above; conditions: 10 mM MgCl2; 10 mM Na2HPO4/KH2PO4; pH 7.4, room temperature, 500 nM OTA titrated with aptamer
[16] = system: OBA6 (DNA, aptamer) GCGGGGCGAAGCGGGTCCCGC; experiment: as above; conditions: 10 mM MgCl2; 10 mM Na2HPO4/KH2PO4; pH 7.4, room temperature, 500 nM OTA titrated with aptamer
[17] = system: OBA1 (DNA, aptamer) CGGGGTGAAACGGGTCCCG; experiment: 1H NMR imino spectra; conditions: 10 mM MgCl2; 10 mM Na2HPO4/KH2PO4; pH 7.4, 2 equivalents of OTB
[18] = system: OBA2 (DNA, aptamer) GGGGCGAAGCGGGTCCCG; experiment: 1H NMR imino spectra; conditions: 10 mM MgCl2; 10 mM Na2HPO4/KH2PO4; pH 7.4, 2 equivalents of OTB
[19] = system: OBA3 (DNA, aptamer) CGGGGCGAAGCGGGTCCCG; experiment: 1H NMR imino spectra; conditions: 10 mM MgCl2; 10 mM Na2HPO4/KH2PO4; pH 7.4, 2 equivalents of OTB
[20] = system: OBAwt (DNA, aptamer) GGGGTGAAACGGGTCCCG; experiment: 1H NMR imino titration; conditions: 10 mM Mg2+; 10 mM Na2HPO4/KH2PO4; pH 7.4, 288 K, 0.1 mM aptamer

Compound	binding [1]	binding [2]	binding [3]	binding [4]	binding [5]	binding [6]	binding [7]	binding [8]	binding [9]	binding [10]	K d [11]	K d [12]	K d [13]	K d [14]	K d [15]	K d [16]	binding [17]	binding [18]	binding [19]	binding [20]
C[C@@H]1Cc2c(Cl)cc(C(=O)N[C@@H](Cc3ccccc3)C(=O)O)c(O)c2C(=O)O1	yes	no	no	no	no	no	no	yes	no	no	81 ± 2 µM	5.9 ± 0.1 µM	26.2 ± 0.4 µM	1.4 ± 0.1 µM	1.9 ± 0.1 µM	2.4 ± 0.1 µM	–	–	–	–
C[C@@H]1Cc2ccc(C(=O)N[C@@H](Cc3ccccc3)C(=O)O)c(O)c2C(=O)O1	–	–	–	–	–	–	–	–	–	–	–	–	–	–	–	–	weak	weak	weak	no
